Read-outs that look alike come from different tables or passages of the source.
What was measured:
[1] = system: HIV-1 JR-CSF; test: HIV-1/HCV co-culture co-infection, HIV-1 p24 ELISA; assay type: cell-based
Description: (§1) CD4+ T-lymphocytes and Huh7.5.1 cells uninfected or infected for 3 h as described above were mixed in a single flask and HIV-1 and HCV replication monitored over a period of 3 weeks as described above.
(§2) HIV-1 target cells—CD4+ T-lymphocytes—and HCV target cells—hepatoma cells—were placed in a single chamber (flask), exposed to both HIV-1 and HCV, and viral replication monitored over time by p24 capsid and core ELISAs, respectively.
(§3) CD4+ T-lymphocytes (A) and Huh7.5.1 cells (B) (0.5 x 10^6 cells) (triplicates) were exposed to HIV-1 JR-CSF and HCV JFH-1. Drugs (2 μM) were added 3 h pre-viral exposure (top panels) or 3 days post-viral exposure (bottom panels). Viral replications were monitored by HIV-1 p24 and HCV core ELISAs. C. CD4+ T-lymphocytes (0.5 x 10^6 cells) (triplicates) were exposed to HIV-1 JR-CSF. Drugs were initially added 3 days post-viral exposure (2 μM) and then daily (0.5 μM). Viral replications were monitored by HIV-1 p24 and HCV core ELISAs. […] D. Model for the HIV-1/HCV co-culture system.

[2] = system: HIV-1 JR-CSF; test: HIV-1 mono-infection of CD4+ T-lymphocytes, p24 ELISA; assay type: cell-based; settings: Fig 1A
Description: Hemoglobin determinations at every donation protect the donor from phlebotomy-induced anemia. The donor pool also provides investigators with a mix of gender and minority subjects, and recruitment is ongoing for underrepresented minorities. At the present time, the NBDS has 320 active normal blood donors enrolled. Use of the Normal Blood Donor Service is considered “human subjects” research and each investigator who wants to use the service must submit a protocol to the IRB for review and approval. Dr. Gallay has current IRB approval for the human blood obtained for research described in this manuscript. Protocol No: IRB-15-6552. Full name of the IRB is "Scripps IRB". […] Consent from blood donors was obtained verbally. The authors have no access to identifying donor information for these samples.

[3] = system: HCV JFH-1; test: HCV mono-infection of Huh7.5.1 cells, core ELISA; assay type: cell-based; settings: Fig 1B
[4] = system: HCV JFH-1; test: HIV-1/HCV co-culture co-infection, HCV core ELISA; assay type: cell-based
Description: as §1, §2, §3

[5] = system: human T cells; settings: cited from earlier work
[6] = drug treatments begun 3 h before virus addition
[7] = single dose added 3 days post-infection

SMILES	Effect on HIV-1 replication (in words) [1, 6]	Effect on HIV-1 replication (in words) [2]	Effect on HCV replication (in words) [3]	Effect on HCV replication (in words) [4, 6]	Effect on HCV replication (in words) [4, 7]	Cellular toxicity (in words) ([5]; general statement on other CypI, no reference given)	Effect on HIV-1 replication (in words) [1, 7]	Cellular toxicity (in words) [5]
COC(=O)N[C@H](C(=O)N1CCC[C@H]1c1nc(-c2ccc(-c3ccc(-c4c[nH]c([C@@H]5CCCN5C(=O)[C@@H](NC(=O)OC)C(C)C)n4)cc3)cc2)c[nH]1)C(C)C [Daclatasvir, daclatasvir]	did not	had no effect	fully blocked HCV replication	completely prevented	completely eradicated			
C/C=C/C[C@@H](C)[C@@H](O)[C@H]1C(=O)N[C@@H](CC)C(=O)N(C)CC(=O)N(C)[C@@H]([C@@H](C)CC)C(=O)N[C@@H](C(C)C)C(=O)N(C)[C@@H](CC(C)C)C(=O)N[C@@H](C)C(=O)N[C@H](C)C(=O)N(C)[C@@H](CC(C)C)C(=O)N(C)[C@@H](CC(C)C)C(=O)N(C)[C@@H](C(C)C)C(=O)N1C [NIM811]						lack of cellular toxicity		
Cc1c(O)cccc1C(=O)N[C@@H](CSc1ccccc1)[C@H](O)CN1C[C@H]2CCCC[C@H]2C[C@H]1C(=O)NC(C)(C)C [Nelfinavir, nelfinavir]	totally prevented HIV-1 replication	totally blocked replication	had no effect	did not			completely eradicated	
C/C=C/C[C@@H](C)[C@@H](O)[C@H]1C(=O)N[C@@H](CC)C(=O)N(C)[C@H](SCCN(C)C)C(=O)N(C)[C@@H](CC(C)(C)O)C(=O)N[C@@H](C(C)C)C(=O)N(C)[C@@H](CC(C)C)C(=O)N[C@@H](C)C(=O)N[C@H](C)C(=O)N(C)[C@@H](CC(C)C)C(=O)N(C)[C@@H](CC(C)C)C(=O)N(C)[C@@H](C(C)C)C(=O)N1C [SCY-635]								lack of cellular toxicity
